The text below walks through data of doi:10.1101/2025.10.23.684218v2, “Development of a dual chemical probe for the USP16 and HDAC6 zinc-finger ubiquitin-binding domain” (biorxiv, 2025).

As a reminder, the Kd is the constant that tells how readily two partners part at equilibrium.

Read-outs that look alike come from different tables or passages of the source.

Holding throughout (experiment): biochemical
What all share (set-up): SPR, steady-state binding to immobilised biotinylated UBD proteins

Assay [1] deals with T1, USP13 (Homo sapiens, UniProt Q92995).
T1 construct: UBD, residues 183-307
T1 sequence (Q92995 1-863): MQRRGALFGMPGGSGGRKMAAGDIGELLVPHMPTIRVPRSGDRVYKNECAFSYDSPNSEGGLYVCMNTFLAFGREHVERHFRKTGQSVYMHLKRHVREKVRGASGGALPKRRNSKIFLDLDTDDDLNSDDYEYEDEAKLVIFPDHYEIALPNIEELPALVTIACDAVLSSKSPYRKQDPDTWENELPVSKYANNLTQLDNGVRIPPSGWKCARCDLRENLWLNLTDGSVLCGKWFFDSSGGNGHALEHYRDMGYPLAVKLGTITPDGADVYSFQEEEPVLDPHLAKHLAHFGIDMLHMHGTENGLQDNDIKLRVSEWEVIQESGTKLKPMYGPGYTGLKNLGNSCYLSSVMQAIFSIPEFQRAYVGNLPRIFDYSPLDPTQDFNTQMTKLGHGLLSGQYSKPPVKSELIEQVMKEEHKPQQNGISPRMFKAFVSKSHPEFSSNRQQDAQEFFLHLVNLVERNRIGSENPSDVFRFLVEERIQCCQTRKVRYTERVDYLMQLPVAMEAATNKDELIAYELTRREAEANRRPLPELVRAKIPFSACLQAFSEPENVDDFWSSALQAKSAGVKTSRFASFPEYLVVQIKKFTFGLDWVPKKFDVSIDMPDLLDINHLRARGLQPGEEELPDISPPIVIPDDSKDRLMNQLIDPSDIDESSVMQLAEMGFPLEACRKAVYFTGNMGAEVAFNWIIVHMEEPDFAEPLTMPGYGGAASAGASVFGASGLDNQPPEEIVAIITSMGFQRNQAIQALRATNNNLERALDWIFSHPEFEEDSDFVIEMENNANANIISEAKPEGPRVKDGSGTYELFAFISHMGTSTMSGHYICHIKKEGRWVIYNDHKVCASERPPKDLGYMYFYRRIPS

Assay [2] deals with T2, USP33 (Homo sapiens, UniProt Q8TEY7).
T2 construct: UBD, residues 29-134
T2 sequence (Q8TEY7 1-942): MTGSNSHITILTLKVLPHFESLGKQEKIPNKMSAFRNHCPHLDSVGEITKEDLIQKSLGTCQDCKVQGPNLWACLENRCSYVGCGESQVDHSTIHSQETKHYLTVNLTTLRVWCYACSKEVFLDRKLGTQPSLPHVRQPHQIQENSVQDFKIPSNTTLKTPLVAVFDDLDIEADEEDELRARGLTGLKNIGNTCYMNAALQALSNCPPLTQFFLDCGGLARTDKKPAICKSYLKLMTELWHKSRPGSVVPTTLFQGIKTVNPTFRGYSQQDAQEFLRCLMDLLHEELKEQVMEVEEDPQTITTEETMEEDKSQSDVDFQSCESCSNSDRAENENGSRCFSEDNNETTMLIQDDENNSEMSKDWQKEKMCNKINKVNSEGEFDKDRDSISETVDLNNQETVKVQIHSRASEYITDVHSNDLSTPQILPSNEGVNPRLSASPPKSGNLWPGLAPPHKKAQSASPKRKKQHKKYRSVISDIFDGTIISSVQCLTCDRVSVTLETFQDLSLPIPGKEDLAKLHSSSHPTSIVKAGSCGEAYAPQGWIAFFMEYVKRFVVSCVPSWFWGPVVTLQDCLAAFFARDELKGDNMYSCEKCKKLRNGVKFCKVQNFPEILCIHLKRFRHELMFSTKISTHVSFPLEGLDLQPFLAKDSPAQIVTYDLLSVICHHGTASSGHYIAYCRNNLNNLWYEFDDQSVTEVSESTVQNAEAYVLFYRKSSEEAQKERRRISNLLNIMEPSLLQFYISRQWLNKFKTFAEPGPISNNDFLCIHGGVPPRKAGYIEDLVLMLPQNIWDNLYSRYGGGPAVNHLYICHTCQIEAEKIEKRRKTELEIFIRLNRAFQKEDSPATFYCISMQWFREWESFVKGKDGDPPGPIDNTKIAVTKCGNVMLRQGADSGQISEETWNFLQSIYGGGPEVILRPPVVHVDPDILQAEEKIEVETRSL

Assay [3] concerns the target T3, USP5 (Homo sapiens, UniProt P45974).
T3 construct: UBD, residues 171-290
T3 sequence (P45974 1-858): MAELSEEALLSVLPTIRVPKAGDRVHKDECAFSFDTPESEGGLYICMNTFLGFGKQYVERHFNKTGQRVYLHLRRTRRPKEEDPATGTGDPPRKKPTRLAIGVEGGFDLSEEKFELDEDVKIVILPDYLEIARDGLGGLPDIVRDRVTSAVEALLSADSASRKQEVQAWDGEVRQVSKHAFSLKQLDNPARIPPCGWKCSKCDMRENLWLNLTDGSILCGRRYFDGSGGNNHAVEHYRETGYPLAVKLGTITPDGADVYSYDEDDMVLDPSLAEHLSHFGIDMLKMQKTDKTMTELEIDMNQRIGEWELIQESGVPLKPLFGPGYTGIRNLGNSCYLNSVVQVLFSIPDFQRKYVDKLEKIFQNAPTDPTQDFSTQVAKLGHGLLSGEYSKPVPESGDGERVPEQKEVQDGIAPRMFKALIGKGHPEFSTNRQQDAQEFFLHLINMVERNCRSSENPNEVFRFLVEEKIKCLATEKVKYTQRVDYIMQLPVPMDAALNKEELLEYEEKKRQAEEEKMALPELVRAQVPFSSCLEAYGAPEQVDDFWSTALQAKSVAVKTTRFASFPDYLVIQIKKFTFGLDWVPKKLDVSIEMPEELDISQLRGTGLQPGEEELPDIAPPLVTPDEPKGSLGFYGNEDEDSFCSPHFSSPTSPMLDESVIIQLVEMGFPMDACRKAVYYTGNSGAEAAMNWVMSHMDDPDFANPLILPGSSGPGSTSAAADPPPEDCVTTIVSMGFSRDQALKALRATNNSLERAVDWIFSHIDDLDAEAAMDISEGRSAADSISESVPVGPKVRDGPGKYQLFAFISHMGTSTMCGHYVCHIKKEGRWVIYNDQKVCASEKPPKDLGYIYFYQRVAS

Where [4] appears, read: read-out: Probe KD (nM) SGC-UBD1031.
[5] abbreviates: read-out: Negative Control KD (nM) SGC-UBD1031N.

Turning to `C[C@H](NC(=O)Cn1c(CCC(=O)O)nc2c(Cl)cccc2c1=O)c1c(F)cccc1F` [compound 15, (S)-3-(8-chloro-3-(2-((1-(2,6-difluorophenyl)ethyl)amino)-2-oxoethyl)-4-oxo-3,4-dihydroquinazolin-2-yl)propanoic acid], the Kd in assay [1] (setting [4]) is greater than 10000 nM; in assay [2] (setting [4]), greater than 10000 nM; in assay [3] (setting [4]), 2600 ± 1400 nM.
As for `C[C@@H](NC(=O)Cn1c(CCC(=O)O)nc2c(Cl)cccc2c1=O)c1c(F)cccc1F` [compound 16, (R)-3-(8-chloro-3-(2-((1-(2,6-difluorophenyl)ethyl)amino)-2-oxoethyl)-4-oxo-3,4-dihydroquinazolin-2-yl)propanoic acid], the Kd in assay [1] (setting [5]), in assay [2] (setting [5]) and in assay [3] (setting [5]) was greater than 10000 nM in each case.
